Experimental data published in PMC6943434, “Novel Homo-Bivalent and Polyvalent Compounds Based on Ligustrazine and Heterocyclic Ring as Anticancer Agents” (Molecules, 2019).
Where two headings read alike, the source gives them in different places.

Columns and labels:
[1] = test system: HeLa (cervical cancer cell line); experiment: MTT cell viability assay, HeLa; format: cell-based; conditions: Homo sapiens, 48 h, read-out: Antiproliferative Activity IC50 ± SEM, HeLa
Experimental: (§1) The tested cells were obtained from Shanghai Institute of Biochemistry and Cell Biology of the Chinese Academy of Sciences (Shanghai, China). HeLa and Hep G2 cell lines were cultured in Dulbecco’s modified Eagle’s medium (DMEM; gibco, Life Technologies, Carlsbad, CA, USA) supplemented with 10% fetal bovine serum (FBS; Biological Industries), 100 U/mL penicillin-streptomycin (PS; gibco, Life Technologies, Carlsbad, CA, USA). MCF-7 and A549 cell lines were maintained in RPMI-1640 media (gibco, Life Technologies, Carlsbad, CA, USA) supplemented with 10% FBS and 100 U/mL PS. FaDu cell lines were cultured in minimum essential medium (MEM; Gibco, Life Technologies, Carlsbad, CA, USA) supplemented with 10% FBS and 100 U/mL PS. MCF 10A cell lines were maintained in Mammary MEGM kit (Lonza/Clonetics) supplemented with 100 ng/mL cholera toxin (Sigma, Shanghai, China). Cell lines were grown at 37 °C in a humidified atmosphere of 5% CO2.
(§2) The growth-inhibitory effects against HeLa, Hep G2, MCF-7, FaDu, and A549 cancer cells and normal cell lines MCF 10A were determined by MTT assay. […] Cells were seeded in 96 well plates at a density of 1 × 10^4 cells per well and incubated for 24 h at 37 °C in a humidified atmosphere of 5% CO2. The cells were then incubated with various concentrations of drugs for 48 h in a 5% CO2 incubator at 37 °C. After treatment with 1 mg/mL 3-(4,5-dimethylthiazol-2-yl)-2,5-diphenyltetrazolium bromide (MTT) solution for 4 h, the formazan crystals were dissolved in 100 µL DMSO in each well. Plates were read on a microplate reader (Thermo Varioskan Flash 3001) at 490 nm. The experiment was performed in triplicate. The inhibitory concentration at 50% (IC50) was calculated based on concentration-inhibition relationships via regression using SPSS software (Version 17.0).

[2] = test system: Hep G2 (hepatocarcinoma cell line); experiment: MTT cell viability assay, Hep G2; format: cell-based; conditions: Homo sapiens, HepG2, 48 h, read-out: Antiproliferative Activity IC50 ± SEM, Hep G2
Experimental: as §1, §2

[3] = test system: MCF-7 (breast cancer cell line); experiment: MTT cell viability assay, MCF-7; format: cell-based; conditions: Homo sapiens, MCF7, 48 h, read-out: Antiproliferative Activity IC50 ± SEM, MCF-7
Experimental: as §1, §2

[4] = test system: FaDu (head and neck squamous carcinoma cell line); experiment: MTT cell viability assay, FaDu; format: cell-based, human; conditions: for IC50: 48 h, MTT, read-out: Antiproliferative Activity IC50 ± SEM, FaDu; for SI: selectivity index: SI = IC50 (MCF 10A)/IC50 (FaDu)
Experimental: as §1, §2

[5] = test system: A549 (epithelial cancer cell line); experiment: MTT cell viability assay, A549; format: cell-based; conditions: Homo sapiens, 48 h, read-out: Antiproliferative Activity IC50 ± SEM, A549
Experimental: as §1, §2

[6] = test system: MCF 10A (normal mammary epithelial cell); experiment: MTT cell viability assay, MCF 10A; format: cell-based; conditions: Homo sapiens, 48 h, normal cells, read-out: Antiproliferative Activity IC50 ± SEM, MCF 10A
FaDu cells [7] = experiment: Colony formation assay; format: cell-based; conditions: Homo sapiens, 240 h, 6 nM, 10 days, read-out: colony inhibition rate
Experimental: FaDu cells were seeded in a 6-well plate with 500 cells per well and incubated for 24 h. Then, the cells were treated with compound 8e at various final concentrations of 0, 0.75, 1.50, 3 nM. Following treatment for 10 days, the cells were washed with PBS twice and fixed with 4% paraformaldehyde for 10 min at room temperature. Then, the cell colonies were visualized by staining with 0.1% crystal violet for 10 min. The image was photographed with Handy camera, and the numbers of cell colonies were analyzed using the open Image J software (Developed by National Institutes of Health). A group of >50 cells was defined as one colony. Triplicate wells were set up for each concentration.

FaDu cells [8] = experiment: Flow cytometric analysis of apoptosis by annexin V-FITC/PI staining; format: cell-based, human; conditions: 24 h, control 8.23%
Experimental: Apoptosis in FaDu cells was evaluated by an annexin V-FITC/PI apoptosis detection kit (Beyotime Institute of Biotechnology, Shanghai, China). Briefly, FaDu cells were treated with various concentrations of compound 8e (2, 5, 10 nM) or DMSO as vehicle control for 24 h at 37 °C; then, the cells were washed twice with cold 1× PBS and centrifuged at 1000 rpm for 5 min. The harvested cells were resuspended gently in 400 µL binding buffer, containing 5 µL annexin V-FITC and 10 µL PI. After incubating for 15 min in the dark at room temperature, the cells were analyzed with flow cytometry (CyFlow® Cube 6, Sysmex). Data were shown as pseudo color graphs and analyzed using FlowJo Software (Tree Star Inc, Ashland, OR).

FaDu cells [9] = experiment: Cell cycle analysis by PI staining; format: cell-based, human; conditions: 24 h; for percentage of cells in the S phase: control 28.1%; for population of the G0/G1 phase: control 51.9%
Experimental: The cell cycle analysis was carried out by a cell cycle and apoptosis analysis kit with a propidium iodide (PI) staining method (Beyotime Institute of Biotechnology, Shanghai, China). Briefly, FaDu cells were incubated with the above-mentioned doses of compound 8e for 24 h; all samples were collected, washed once with cold 1× PBS, and fixed by 70% ice-cold ethanol at 4 °C for 12 h. Then, the fixed cells were washed once with cold 1× PBS and stained with 500 µL 1× PI dye solution (containing 10 µL RNase A) at 37 °C for 30 min in the dark. The red fluorescence was detected using a flow cytometer (CyFlow® Cube 6, Sysmex). The data were analyzed using FlowJo Software (Tree Star Inc, Ashland, OR, USA).

[10] = test system: HeLa, Hep G2, MCF-7, FaDu, A549, MCF 10A; experiment: MTT cell viability assay, summary over the cell line panel; format: cell-based, human; conditions: 48 h, span over the cell lines, read-out: IC50 range over tested cell lines
Experimental: as §1, §2

Row | SMILES | IC50 [1] | IC50 [2] | IC50 [3] | IC50 ([4]; Homo sapiens, FaDu) | SI: selectivity index [4] | IC50 [5] | IC50 [6] | inhibition at 0.006 µM (FaDu cells [7]) | apoptotic cells (early and late apoptosis ratios) (FaDu cells [8]; 2 nM) | apoptotic cells (early and late apoptosis ratios) (FaDu cells [8]; 5 nM) | apoptotic cells (early and late apoptosis ratios) (FaDu cells [8]; 10 nM) | percentage of cells in the S phase (FaDu cells [9]; 2 nM) | population of the G0/G1 phase (FaDu cells [9]; 2 nM) | percentage of cells in the S phase (FaDu cells [9]; 5 nM) | population of the G0/G1 phase (FaDu cells [9]; 5 nM) | percentage of cells in the S phase (FaDu cells [9]; 10 nM) | population of the G0/G1 phase (FaDu cells [9]; 10 nM) | IC50 [10] | IC50 ([10]; Homo sapiens) | IC50 [4]
1 | Cc1nc(C)c(C(=O)NCCCCCCCCCCNC(=O)c2nc(C)c(C)nc2C)nc1C [Compound 8e, N,N′-(Decane-1,10-Diyl)Bis(3,5,6-Trimethylpyrazine-2-Carboxamide)] | 1.42 ± 0.71 µM | > 20 µM | 0.037 ± 0.001 µM | 0.00136 ± 0.00035 µM | 34.56 | 1.05 ± 0.05 µM | 0.047 ± 0.008 µM | ~85.4% | 34.2% | 57.7% | 79.5% | 33.7% | 41.8% | 44.3% | 44.2% | 54.7% | 32.4% | 0.00136 to 1.42 µM | – | –
2 | Cc1nc(C)c(CN(CCCCCCCCCCN(Cc2nc(C)c(C)nc2C)Cc2nc(C)c(C)nc2C)Cc2nc(C)c(C)nc2C)nc1C [Compound 6f, N^1,N^1,N^10,N^10-Tetrakis((3,5,6-Trimethylpyrazin-2-yl)Methyl)Decane-1,10-Diamine] | 10.2 ± 0.55 µM | 10.7 ± 0.22 µM | 20.83 ± 0.14 µM | 10.9 ± 0.12 µM | 1.19 | 20.1 ± 0.41 µM | 13 ± 0.55 µM | – | – | – | – | – | – | – | – | – | – | – | 6.57 to 20.8 µM | –
3 | Cc1nc(C)c(CN(CCCCCCCCCCCCN(Cc2nc(C)c(C)nc2C)Cc2nc(C)c(C)nc2C)Cc2nc(C)c(C)nc2C)nc1C [Compound 6g, N^1,N^1,N^12,N^12-Tetrakis((3,5,6-Trimethylpyrazin-2-yl)Methyl)Dodecane-1,12-Diamine] | 7.89 ± 0.86 µM | 9.62 ± 0.11 µM | 9.83 ± 0.17 µM | 6.8 ± 0.05 µM | 0.97 | 9.23 ± 0.16 µM | 6.57 ± 0.3 µM | – | – | – | – | – | – | – | – | – | – | – | 6.57 to 20.8 µM | –
4 | O=C(NCCCCCCCCCCNC(=O)c1ccccc1)c1ccccc1 [Compound 11e, N,N′-(Decane-1,10-Diyl)Dibenzamide] | > 100 µM | > 100 µM | > 100 µM | < 1 µM | 161.08 | 64.3 ± 3.46 µM | 80.5 ± 7.6 µM | – | – | – | – | – | – | – | – | – | – | – | – | 0.5 ± 0.06 µM
5 | O=C(/C=C/c1ccccc1)NCCOCCOCCNC(=O)/C=C/c1ccccc1 [Compound 9j, (2E,2′E)-N,N′-((Ethane-1,2-Diylbis(Oxy))Bis(Ethane-2,1-Diyl))Bis(3-Phenylacrylamide)] | > 20 µM | > 20 µM | > 20 µM | > 20 µM | – | > 20 µM | > 20 µM | – | – | – | – | – | – | – | – | – | – | – | – | –
6 | O=C(/C=C/c1ccccc1)NCCCCCCCCCCNC(=O)/C=C/c1ccccc1 [Compound 9e, (2E,2′E)-N,N′-(Decane-1,10-Diyl)Bis(3-Phenylacrylamide)] | > 100 µM | > 100 µM | > 100 µM | – | >1851.85 | 11.3 ± 0.81 µM | > 100 µM | – | – | – | – | – | – | – | – | – | – | – | – | –
7 | O=C(NCCCCCCCCCCNC(=O)c1cc2ccccc2oc1=O)c1cc2ccccc2oc1=O [Compound 20e, N,N′-(Decane-1,10-Diyl)Bis(2-Oxo-2H-Chromene-3-Carboxamide)] | > 20 µM | > 20 µM | > 20 µM | > 20 µM | – | > 20 µM | > 20 µM | – | – | – | – | – | – | – | – | – | – | – | – | –
8 | O=C(/C=C/c1ccccc1)OCCCCCCCCCCOC(=O)/C=C/c1ccccc1 [Compound 9h, Decane-1,10-Diyl (2E,2′E)-Bis(3-Phenylacrylate)] | > 20 µM | > 20 µM | > 20 µM | > 20 µM | – | > 20 µM | > 20 µM | – | – | – | – | – | – | – | – | – | – | – | – | –
9 | O=C(NCCCCCCCCCCNC(=O)c1ccc2nc[nH]c2c1)c1ccc2nc[nH]c2c1 [Compound 19e, N,N′-(Decane-1,10-Diyl)Bis(1H-Benzo[d]Imidazole-6-Carboxamide)] | > 20 µM | > 20 µM | > 20 µM | 8.74 ± 0.44 µM | >2.29 | > 20 µM | > 20 µM | – | – | – | – | – | – | – | – | – | – | – | – | –
10 | O=C(NCCCCCCCCCCNC(=O)c1ccc2cc[nH]c2c1)c1ccc2cc[nH]c2c1 [Compound 24e, N,N′-(Decane-1,10-Diyl)Bis(1H-Indole-6-Carboxamide)] | > 20 µM | > 20 µM | > 20 µM | 5.3 ± 0.366 µM | >3.78 | > 20 µM | > 20 µM | – | – | – | – | – | – | – | – | – | – | – | – | –
11 | Nc1ccccc1C(=O)NCCCCCCCCCCNC(=O)c1ccccc1N [Compound 30e, N,N′-(Decane-1,10-Diyl)Bis(2-Aminobenzamide)] | > 20 µM | > 20 µM | > 20 µM | > 20 µM | – | > 20 µM | > 20 µM | – | – | – | – | – | – | – | – | – | – | – | – | –
